Source: patent publication US20240124410A1, “SMALL MOLECULES AND THEIR USE AS MALT1 INHIBITORS” (University of Pittsburgh - Of the Commonwealth System of …, priority 2021, published 2024)

Assays:
[1] = molecular target: T1, KvLQT1/minK (Homo sapiens, UniProt P15382+P51787); assay: Eurofins SAFETYscan 78-target panel, off-target effects, KvLQT1/minK; type: biochemical; details: antagonist / blocker / inhibitor mode
T1 construct: Eurofins
Protocol: (§1) FIG. 9. Table summarizing the Eurofins analysis of potential off-target effects of M1i-124. […] values above 10 μM are generally considered to be acceptable. FIG. 10. Representative hematoxylin and eosin (H&E) staining of organ sections (lung, heart, kidney, liver and adrenal) from control and M1i-124 treated mice described in FIG. 6.
(§2) Studies were performed using the services of Touchstone Biosciences and Eurofins Pharma Discovery Services. […] All blood samples (30-50 ul per sample) were taken via tail vein at 5, 15, and 30 minutes, and 1, 2, 4, 6, 8, and 24 hours after dosing. Blood samples are collected in Greiner MiniCollect K2 EDTA tubes, placed on ice, and within 30 minutes, centrifuged at 15,000 g for 5 minutes to obtain plasma samples. All plasma samples are stored at −70° C. until analysis. Plasma samples were prepared for analysis by LC-MS/MS, and key PK parameters, including terminal half-life (t 112), initial plasma concentration (C0), area under the plasma concentration vs. time curve (AUC), volume of distribution at steady-state (Vss), total plasma clearance (CLp), and mean residence time (MRT), were measured.
(§3) Assay details are available through Eurofins.

[2] = molecular target: T2, CHRM2 (Homo sapiens, UniProt P08172); assay: Eurofins SAFETYscan 78-target panel, off-target effects, CHRM2; type: biochemical; details: antagonist / blocker / inhibitor mode
T2 construct: Eurofins
T2 sequence (P08172 1-466): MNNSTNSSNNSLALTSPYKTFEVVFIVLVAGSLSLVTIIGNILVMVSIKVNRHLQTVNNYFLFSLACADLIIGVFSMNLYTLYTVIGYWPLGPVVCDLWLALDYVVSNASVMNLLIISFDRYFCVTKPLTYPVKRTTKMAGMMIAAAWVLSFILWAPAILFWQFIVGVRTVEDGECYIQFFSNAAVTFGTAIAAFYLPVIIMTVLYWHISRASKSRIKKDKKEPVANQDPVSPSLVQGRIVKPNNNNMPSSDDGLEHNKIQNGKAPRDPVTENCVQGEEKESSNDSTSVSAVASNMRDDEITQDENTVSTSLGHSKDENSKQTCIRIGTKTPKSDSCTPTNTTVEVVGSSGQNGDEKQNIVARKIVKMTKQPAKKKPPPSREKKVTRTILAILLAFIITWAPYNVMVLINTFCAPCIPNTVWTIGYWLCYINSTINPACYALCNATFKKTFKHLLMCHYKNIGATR
Protocol: as §1, §2, §3

[3] = molecular target: T3, DRD1 (Homo sapiens, UniProt P21728); assay: Eurofins SAFETYscan 78-target panel, off-target effects, DRD1; type: biochemical; details: antagonist / blocker / inhibitor mode
T3 construct: Eurofins
T3 sequence (P21728 whole entry): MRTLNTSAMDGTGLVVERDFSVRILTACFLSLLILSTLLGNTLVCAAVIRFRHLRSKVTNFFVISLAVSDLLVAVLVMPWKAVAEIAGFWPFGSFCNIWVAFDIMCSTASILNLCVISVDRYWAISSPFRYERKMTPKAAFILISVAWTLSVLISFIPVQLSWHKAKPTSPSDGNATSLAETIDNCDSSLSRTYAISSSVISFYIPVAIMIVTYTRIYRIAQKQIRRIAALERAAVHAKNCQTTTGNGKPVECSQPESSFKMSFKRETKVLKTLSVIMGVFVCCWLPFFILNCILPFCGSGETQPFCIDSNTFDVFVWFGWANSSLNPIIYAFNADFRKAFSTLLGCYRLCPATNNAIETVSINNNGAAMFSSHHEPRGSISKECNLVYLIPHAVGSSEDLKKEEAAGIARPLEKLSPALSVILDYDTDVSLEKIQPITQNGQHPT
Protocol: as §1, §2, §3

[4] = molecular target: T4, HRH2 (Homo sapiens, UniProt P25021); assay: Eurofins SAFETYscan 78-target panel, off-target effects, HRH2; type: biochemical; details: antagonist / blocker / inhibitor mode
T4 construct: Eurofins
T4 sequence (P25021 whole entry): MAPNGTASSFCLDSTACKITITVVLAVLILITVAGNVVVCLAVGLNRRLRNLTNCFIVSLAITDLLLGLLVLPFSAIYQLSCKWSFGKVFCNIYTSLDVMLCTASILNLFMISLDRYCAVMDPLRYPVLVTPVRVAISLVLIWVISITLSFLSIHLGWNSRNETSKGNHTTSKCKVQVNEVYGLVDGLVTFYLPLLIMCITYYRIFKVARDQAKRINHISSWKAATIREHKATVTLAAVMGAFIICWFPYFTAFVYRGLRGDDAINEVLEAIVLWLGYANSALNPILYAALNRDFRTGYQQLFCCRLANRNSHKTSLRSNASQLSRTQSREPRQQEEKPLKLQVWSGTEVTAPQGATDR
Protocol: as §1, §2, §3

[5] = tested on: T cell receptor (TCR)-induced phosphorylation of ERK; assay: Phosphorylation of ERK in Jurkat T cells (Western blot); type: cell-based; details: 20 hours pretreatment, anti-CD3/CD28 for 0-20 minutes
Protocol: The DLBCL cell lines, OCI-Ly1, OCI-Ly3, and OCI-Ly7, were provided by Dr. Mark Minden (University Health Network, Toronto, Ontario, Canada). TMD8 cells were provided by Dr. Louis Staudt (NCI, NIH). OCI-Ly1 and OCI-Ly7 cells were cultured in Iscove's Modified Dulbecco's Medium (IMDM) supplemented with 10% FBS. OCI-Ly3 cells were cultured in IMDM supplemented with 20% FBS. TMD8 and Jurkat T cells were cultured in RPMI1640 medium with 10% FBS. HEK293T cells were cultured in DMEM medium with 10% FBS. All media were supplemented with 100 U/ml penicillin streptomycin. Stimulation of Jurkat cells was conducted by adding 5 ng/ml of phorbol 12-myristatel3 acetate (PMA)(Sigma-Aldrich) and 1μM ionomycin (Calbiochem), or by adding 5-10 μL/mL of ImmunoCult Human CD3/CD28 ([…] Technologies).

[6] = tested on: TMD8 ABC-DLBCL cells; assay: Cell proliferation (cell count, trypan blue exclusion), TMD8; type: cell-based; details: TMD8, single dose of 1 μM, 12 days
Source text: Cell number was counted using the trypan blue dye exclusion method with Vi-CELL cell viability analyzer (Beckman Coulter) at days 7, 10, and 12 of treatment with compounds. Cell proliferation was specifically evaluated using the CellTrace Violet reagent (ThermoFisher Cat #C34571) which undergoes dilution with each round of cell division. 1.5×10^6 cells were washed twice in PBS and resuspended in 2 mls of PBS.

[7] = tested on: IL-6 and IL-10 secretion in TMD8 cells; assay: IL-6 and IL-10 secretion by TMD8 cells (ELISA); type: cell-based, human
Protocol: Expression of cytokines from cell culture supernatants was measured 24h after treatment with 0, 0.01, 0.03, 0.1, 0.3, 1, or 3 uM of compounds using the following ELISA kits according to the manufacturer's instructions: Human IL-2 ELISA (BioLegend Cat #431804), Human IL-6 ELISA (BioLegend Cat #430504), and Human IL-10 ELISA (BioLegend Cat #430604).

[8] = tested on: MALT1 proteolytic cleavage of RelB and N4BP1; assay: RelB and N4BP1 cleavage assay in Jurkat T cells; type: cell-based; details: 20 hours pretreatment, MG132, PMA/iono stimulation

## O=S(=O)(NCc1ccc2c(c1)OCO2)c1ccc(Cc2ccc(S(=O)(=O)NCc3ccc4c(c3)OCO4)cc2)cc1 [M1i-124]
[1]
  IC50: 1800 nM
[2]
  IC50: 1200 nM
[3]
  IC50: 1900 nM
[4]
  IC50: 2300 nM

## COc1ccc(CNS(=O)(=O)c2ccc(Cc3ccc(S(=O)(=O)NCc4ccc(OC)cc4)cc3)cc2)cc1 [M1i-124d1]
[5]
  Phosphorylation of ERK (phospho-ERK/total ERK): Neither M1i-124 (F) or M1i-124d1 (G) inhibits
[6]
  Proliferation: inhibit the proliferation
[7]
  IL-6 secretion: inhibit IL-6 and IL-10 secretion in a concentration-dependent manner
  IL-10 secretion: inhibit IL-6 and IL-10 secretion in a concentration-dependent manner
[8]
  MALT1 proteolytic cleavage of N4BP1 (ratio cleaved/full-length): inhibit
  MALT1 proteolytic cleavage of RelB (ratio cleaved/full-length): inhibit
